{"source": "ChEMBL document CHEMBL2375319", "about": "“Design, synthesis and structure-activity relationships of 3,5-diaryl-1H-pyrazoles as inhibitors of arylamine N-acetyltransferase” (Bioorg Med Chem Lett, 2013)", "test_system": "Mycobacterium tuberculosis", "test": "Antimycobacterial activity against Mycobacterium bovis BCG after 28 days", "format": "functional", "conditions": "variant bovis BCG, 672 h", "data": [{"smiles": "COc1ccc(-c2cc(-c3cc(OC)ccc3O)[nH]n2)cc1", "values": [{"measurement": "MIC", "value": 34, "unit": "µM"}]}]}
